Measurements taken from ChEMBL document CHEMBL3421587, “Discovery of novel small-molecule antagonists for GluK2” (Bioorg Med Chem Lett, 2015).
Activity calls are given as the source filed them. The rule behind the calls is not given here.

Tests used:
Type in all cases: cell-based
[1] = biological target: Glutamate receptor ionotropic, kainate 2 (Homo sapiens) (UniProt Q13002); assay: Antagonist activity at GluK2 (unknown origin) transfected in HEK293 cells assessed as inhibition of L-glutamate-induced peak current responses at 1 mM compound added in background solution by electrophysiological analysis relative to control
Chain of Glutamate receptor ionotropic, kainate 2 (Homo sapiens) (Q13002 whole entry): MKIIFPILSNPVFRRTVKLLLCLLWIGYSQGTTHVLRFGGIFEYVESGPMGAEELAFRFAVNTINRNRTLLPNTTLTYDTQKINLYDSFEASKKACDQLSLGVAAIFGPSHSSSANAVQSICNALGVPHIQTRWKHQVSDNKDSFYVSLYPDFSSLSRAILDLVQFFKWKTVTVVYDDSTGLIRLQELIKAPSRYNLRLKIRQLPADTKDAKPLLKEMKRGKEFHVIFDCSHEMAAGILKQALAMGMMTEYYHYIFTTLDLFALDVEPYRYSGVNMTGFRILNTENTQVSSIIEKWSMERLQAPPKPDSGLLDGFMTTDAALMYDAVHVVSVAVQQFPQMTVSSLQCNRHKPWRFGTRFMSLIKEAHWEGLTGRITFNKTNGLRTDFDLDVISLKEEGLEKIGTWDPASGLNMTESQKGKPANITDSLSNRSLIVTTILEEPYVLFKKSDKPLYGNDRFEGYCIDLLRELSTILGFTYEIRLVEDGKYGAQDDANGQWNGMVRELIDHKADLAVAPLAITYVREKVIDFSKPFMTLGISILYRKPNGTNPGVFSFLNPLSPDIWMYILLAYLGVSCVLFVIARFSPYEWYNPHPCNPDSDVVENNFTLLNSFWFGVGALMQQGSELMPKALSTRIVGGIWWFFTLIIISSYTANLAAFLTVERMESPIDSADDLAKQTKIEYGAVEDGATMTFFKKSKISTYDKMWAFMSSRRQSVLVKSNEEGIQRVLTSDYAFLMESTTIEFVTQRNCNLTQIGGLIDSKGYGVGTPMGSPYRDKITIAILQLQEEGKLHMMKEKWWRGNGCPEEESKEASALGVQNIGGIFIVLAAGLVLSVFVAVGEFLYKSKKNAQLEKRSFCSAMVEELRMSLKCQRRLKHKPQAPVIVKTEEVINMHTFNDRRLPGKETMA

[2] = biological target: Glutamate receptor ionotropic, kainate 2 (Homo sapiens) (UniProt Q13002); assay: Agonist activity at GluK2 (unknown origin) transfected in HEK293 cells assessed as current responses at 1 mM by electrophysiological analysis
[3] = biological target: Glutamate receptor ionotropic, kainate 2 (Homo sapiens) (UniProt Q13002); assay: Antagonist activity at GluK2 (unknown origin) transfected in HEK293 cells assessed as inhibition of L-glutamate-induced peak current response at 1 mM compound added in background and L-glutamate solution by electrophysiological analysis relative to control

Row | SMILES | inhibition [1] | Activity [2] | inhibition [3] [%]
1 | CC(C)C[C@@H](CC(=O)O)[C@H](N)C(=O)O | inactive |  | 
2 | N[C@H](C(=O)O)[C@H](CC(=O)O)c1ccccc1 | inactive |  | 
3 | CC[C@@H](CC(=O)O)[C@H](N)C(=O)O | 46% | inactive | 53
4 | CCC[C@@H](CC(=O)O)[C@H](N)C(=O)O | 95% |  | 
5 | C[C@@H](CC(=O)O)[C@H](N)C(=O)O | 38% | inactive | 
